In patent publication US9896441B2 (Lycera Corporation, priority 2014, dated 2018):

How the values were obtained:
RORγ-LBD = molecular target: T1, RORγ-LBD (Homo sapiens, UniProt P51449); assay: RORγ-Ligand Binding Domain (LBD) TR-FRET Assay; assay type: biochemical; conditions: for TR-FRET Assay Max Response: maximum response;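 for TR-FRET Assay Max Response: 665/615 nm signal ratio set to 100 without ursolic acid or test compound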
T1 construct: made in house; host or cells: SF9 cells (baculovirus); used as diluted lysate
T1 sequence (P51449 269-508 limits assumed): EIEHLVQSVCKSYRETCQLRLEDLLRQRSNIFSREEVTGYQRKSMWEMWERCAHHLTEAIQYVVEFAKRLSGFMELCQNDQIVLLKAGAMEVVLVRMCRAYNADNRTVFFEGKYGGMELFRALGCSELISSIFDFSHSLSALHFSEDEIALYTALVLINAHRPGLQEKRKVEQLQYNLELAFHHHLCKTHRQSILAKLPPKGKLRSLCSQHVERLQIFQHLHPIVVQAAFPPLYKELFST
In short: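 This TR-FRET coactivator assay pairs baculovirus-expressed His-RORγ-LBD (~3 nM final) with biotin-SRC1 LXXLL peptide at 200 nM final in pH 7.0 Tris/KCl/EDTA/DTT/BSA buffer.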

Gal4-RORγ-LBD = molecular target: T2, Gal4-RORγ-LBD (Homo sapiens, UniProt P51449); assay: Gal4-RORγ Luciferase Reporter Assay in HEK-293T Cells; assay type: cell-based; conditions: HEK-293 cells, luciferase reporter; for Gal4-RORγ Assay Max Response: maximum response
T2 construct: expressed in transfected cells
T2 sequence (P51449 269-508 limits assumed): T1 sequence (P51449 269-508 limits assumed)
In short: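 HEK-293 cells were co-transfected with Gal4-RORγ-LBD and a Gal4-luciferase reporter, then exposed overnight at 37 °C to compounds with […] ursolic acid present (0.2% DMSO). Luminescence was read with One-Glo after 10 min at RT, untreated signal was set as 100, and Max Response was taken as the upper plateau of a 4-parameter logistic fit.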

| EC50 (RORγ-LBD; RORγ-LBD TR-FRET) | EC50 (Gal4-RORγ-LBD; with ursolic acid) | EC50 (RORγ-LBD; RORγ-LBD TR-FRET assay) | EC50 (Gal4-RORγ-LBD; in presence of ursolic acid) | SMILES | TR-FRET Assay Max Response (RORγ-LBD; RORγ-LBD TR-FRET assay) | Gal4-RORγ Assay Max Response (Gal4-RORγ-LBD; in presence of ursolic acid) |
| --- | --- | --- | --- | --- | --- | --- |
| – | – | < 500 nM | < 500 nM | C/C(=C\c1ccc2c(c1)N(S(=O)(=O)c1cccc(C(F)(F)F)c1)C[C@H](CCC(=O)N1CCC(C(N)=O)CC1)O2)c1c(F)cccc1Cl [Example 127A, (S,E)-1-(3-(6-(2-(2-chloro-6-fluoro-phenyl)-prop-1-en-1-yl)-4-((3-(trifuoromethyl)phenyl)sulfonyl)-3,4-dihydro-2H-benzo[b][1,4]oxazin-2-yl)propanoyl)piperidine-4-carboxamide] | **** (a value greater than 200) | ** (a value in the range of greater than 90 to 150) |
| – | – | < 500 nM | < 500 nM | COC(=O)CCC1CC(S(=O)(=O)c2cccc(C(F)(F)F)c2)c2cc(OCc3c(F)cccc3Cl)ccc2O1 (centres unmarked) [Example 186B, methyl 3-(6-((2-chloro-6-fluorobenzyl)oxy)-4-((3-(trifluoromethyl)phenyl)sulfonyl)chroman-2-yl)propanoate] | ** (a value in the range of greater than 90 to 150) | ** (a value in the range of greater than 90 to 150) |
| – | – | < 500 nM | 500 to 5000 nM | C/C(=C\c1ccc2c(c1)N(S(=O)(=O)c1cccc(C(F)(F)F)c1)C[C@H](OCC(=O)O)C2)c1c(F)cccc1Cl [Example 173E, (R,E)-2-((7-(2-(2-chloro-6-fluorophenyl)prop-1-en-1-yl)-1-((3-(trifluoromethyl)-phenyl)sulfonyl)-1,2,3,4-tetrahydroquinolin-3-yl)oxy)acetic acid] | ** (a value in the range of greater than 90 to 150) | ** (a value in the range of greater than 90 to 150) |
| – | – | < 500 nM | < 500 nM | CC(=O)N1CCN(C(=O)CC[C@H]2CN(S(=O)(=O)c3cccc(C(F)(F)F)c3)c3cc(/C=C(\C)c4c(F)cccc4Cl)ccc3O2)CC1 [Example 127J, (S,E)-1-(4-acetyl-piperazin-1-yl)-3-(6-(2-(2-chloro-6-fluorophenyl)prop-1-en-1-yl)-4-((3-(trifluoro-methyl)-phenyl)sulfonyl)-3,4-dihydro-2H-benzo[b]-[1,4]oxazin-2-yl)propan-1-one] | *** (a value in the range of greater than 150 to 200) | ** (a value in the range of greater than 90 to 150) |
| < 500 nM | 500 to 5000 nM | – | – | CCC(=Cc1ccc2c(c1)N(S(=O)(=O)c1cc(C(F)(F)F)cnc1OCCO)C[C@H](CCC(=O)O)O2)CC [Example 95F, (S)-3-(6-(2-ethylbut-1-en-1-yl)-4-((2-(2-hydroxyethoxy)-5-(trifluoromethyl)pyridin-3-yl)sulfonyl)-3,4-dihydro-2H-benzo[b][1,4]oxazin-2-yl)propanoic acid] | – | – |
| – | – | < 500 nM | 500 to 5000 nM | CC(C)(CC1CC(S(=O)(=O)c2cccc(C(F)(F)F)c2)c2cc(OCc3c(F)cccc3Cl)ccc2O1)C(=O)O (centres unmarked) [Example 186E, 3-(6-((2-chloro-6-fluorobenzyl)oxy)-4-((3-(trifluoromethyl)phenyl)-sulfonyl)chroman-2-yl)-2,2-dimethylpropanoic acid] | ** (a value in the range of greater than 90 to 150) | ** (a value in the range of greater than 90 to 150) |

The remaining lines, values behind:

| SMILES | EC50 (RORγ-LBD; RORγ-LBD TR-FRET) | EC50 (Gal4-RORγ-LBD; with ursolic acid) | EC50 (RORγ-LBD; RORγ-LBD TR-FRET assay) | EC50 (Gal4-RORγ-LBD; in presence of ursolic acid) | TR-FRET Assay Max Response (RORγ-LBD; RORγ-LBD TR-FRET assay) | Gal4-RORγ Assay Max Response (Gal4-RORγ-LBD; in presence of ursolic acid) |
| --- | --- | --- | --- | --- | --- | --- |
| CC(F)(F)c1cccc(S(=O)(=O)N2C[C@H](CCC(=O)O)Oc3ccc(/C=C/c4c(Cl)cccc4C(F)(F)F)cc32)c1 [Example 84, (S,E)-3-(6-(2-Chloro-6-(trifluoromethyl)styryl)-4-((3-(1,1-difluoroethyl)phenyl)sulfonyl)-3,4-dihydro-2H-benzo[b][1,4]oxazin-2-yl)propanoic acid] | < 500 nM | < 500 nM | – | – | – | – |
| COc1cccnc1/C=C/c1ccc2c(c1)N(S(=O)(=O)c1cccc(C(F)(F)F)c1)C[C@H](CCC(=O)O)O2 [Example 89DK, (S,E)-3-(6-(2-(3-methoxypyridin-2-yl)vinyl)-4-((3-(trifluoromethyl)phenyl)-sulfonyl)-3,4-dihydro-2H-benzo[b][1,4]oxazin-2-yl)propanoic acid] | < 500 nM | 500 to 5000 nM | – | – | – | – |
| O=S(=O)(c1cccc(C(F)(F)F)c1)N1C[C@H](CO)Oc2ccc(Oc3ccccc3Cl)cc21 [Example 131, (R)-(6-(2-Chlorophenoxy)-4-((3-(trifluoromethyl)phenyl)sulfonyl)-3,4-dihydro-2H-benzo[b][1,4]oxazin-2-yl)methanol] | – | – | < 500 nM | < 500 nM | *** (a value in the range of greater than 150 to 200) | ** (a value in the range of greater than 90 to 150) |
| COC(=O)CC[C@H]1CN(S(=O)(=O)c2cccc(OC(F)F)c2)c2cc(/C=C/c3c(F)cccc3Cl)ccc2O1 [Example 89B, (S,E)-methyl 3-(6-(2-chloro-6-fluorostyryl)-4-((3-(difluoromethoxy)phenyl)sulfonyl)-3,4-dihydro-2H-benzo[b][1,4]oxazin-2-yl)propanoate] | < 500 nM | 500 to 5000 nM | – | – | – | – |
| N#Cc1cccc(/C=C/c2ccc3c(c2)N(S(=O)(=O)c2cccc(C(F)(F)F)c2)C[C@H](CCC(=O)O)O3)c1F [Example 89BW, (S,E)-3-(6-(3-cyano-2-fluorostyryl)-4-((3-(trifluoromethyl)phenyl)sulfonyl)-3,4-dihydro-2H-benzo[b][1,4]oxazin-2-yl)propanoic acid] | < 500 nM | > 10000 nM | – | – | – | – |
| COC(=O)CC[C@H]1CN(S(=O)(=O)c2cccc(OC(F)F)c2)c2cc(/C=C(\C)c3c(F)cccc3Cl)ccc2O1 [Example 86P, (S,E)-methyl 3-(6-(2-(2-chloro-6-fluorophenyl)prop-1-en-1-yl)-4-((3-(difluoromethoxy)phenyl)-sulfonyl)-3,4-dihydro-2H-benzo[b][1,4]oxazin-2-yl)propanoate] | < 500 nM | 500 to 5000 nM | – | – | – | – |
| CCOc1nn(CC)cc1S(=O)(=O)N1C[C@H](CCC(=O)OC)Oc2ccc(/C=C/c3ncccc3F)cc21 [Example 89X, (S,E)-methyl 3-(4-((3-ethoxy-1-ethyl-1H-pyrazol-4-yl)-sulfonyl)-6-(2-(3-fluoropyridin-2-yl)vinyl)-3,4-dihydro-2H-benzo[b][1,4]oxazin-2-yl)propanoate] | 500 to 5000 nM | > 10000 nM | – | – | – | – |
| COC(=O)CC[C@H]1CN(S(=O)(=O)c2cc(F)cc(C(F)(F)F)c2)c2cc(/C=C(\C)c3c(F)cccc3Cl)ccc2O1 [Example 86AR, (S,E)-methyl 3-(6-(2-(2-chloro-6-fluorophenyl)prop-1-en-1-yl)-4-((3-fluoro-5-(trifluoromethyl)-phenyl)sulfonyl)-3,4-dihydro-2H-benzo[b][1,4]oxazin-2-yl)propanoate] | < 500 nM | 500 to 5000 nM | – | – | – | – |
| C[C@@H](O)COc1ncc(C(F)(F)F)cc1S(=O)(=O)N1C[C@H](CCC(=O)O)Oc2ccc(/C=C/c3c(F)cccc3Cl)cc21 [Example 79, 3-((S)-6-((E)-2-Chloro-6-fluorostyryl)-4-((2-((R)-2-hydroxypropoxy)-5-(trifluoromethyl)pyridin-3-yl)sulfonyl)-3,4-dihydro-2H-benzo[b][1,4]oxazin-2-yl)propanoic acid] | < 500 nM | 500 to 5000 nM | – | – | – | – |
| C/C(=C\c1ccc2c(c1)N(S(=O)(=O)c1cc(C(F)(F)F)cnc1OCCO)C[C@H](CCC(=O)O)O2)c1c(F)cccc1Cl [Example 71, (S,E)-3-(6-(2-(2-Chloro-6-fluorophenyl)prop-1-en-1-yl)-4-((2-(2-hydroxyethoxy)-5-(trifluoromethyl)pyridin-3-yl)sulfonyl)-3,4-dihydro-2H-benzo[b][1,4]oxazin-2-yl)propanoic acid] | < 500 nM | < 500 nM | – | – | – | – |
| COC(=O)CC[C@H]1CN(S(=O)(=O)c2cccc(OC(F)F)c2)c2c(ccc(/C=C(\C)c3c(F)cccc3Cl)c2F)O1 [Example 63, Methyl (S,E)-3-(6-(2-(2-chloro-6-fluorophenyl)prop-1-en-1-yl)-4-((3-(difluoromethoxy)phenyl)sulfonyl)-5-fluoro-3,4-dihydro-2H-benzo[b][1,4]oxazin-2-yl)propanoate] | < 500 nM | 500 to 5000 nM | – | – | – | – |
| C[C@H]1CN(S(=O)(=O)c2cc(C(F)(F)F)cnc2OCCO)c2cc(/C=C/c3c(Cl)cccc3C(F)(F)F)ccc2O1 [Example 89EX, (S,E)-2-((3-((6-(2-chloro-6-(trifluoromethyl)styryl)-2-methyl-2,3-dihydro-4H-benzo[b][1,4]oxazin-4-yl)sulfonyl)-5-(trifluoromethyl)-pyridin-2-yl)oxy)ethan-1-ol] | < 500 nM | 500 to 5000 nM | – | – | – | – |
| COC(=O)CC[C@H]1CN(S(=O)(=O)c2cccc(OC)c2)c2cc(/C=C(\C)c3c(F)cccc3Cl)ccc2O1 [Example 86N, (S,E)-methyl 3-(6-(2-(2-chloro-6-fluorophenyl)prop-1-en-1-yl)-4-((3-methoxyphenyl)sulfonyl)-3,4-dihydro-2H-benzo[b][1,4]oxazin-2-yl)propanoate] | < 500 nM | < 500 nM | – | – | – | – |
